Structures can show the parent of a compound that is named as a salt. Where two headings read alike, the source gives them in different places.
Tests used:
[1] = biological target: T1, FGFR1 (Homo sapiens, UniProt P11362); test: Kinase binding assay (kinase-tagged T7 phage, affinity beads, qPCR), Kd; settings: read-out: FGFR1 (Kd nM)
T1 construct: made in house; host or cells: E. coli (BL21-derived), T7 phage
Method: (§1) Kinase-tagged T7 phage strains were prepared in an E. coli host derived from the BL21 strain. E. coli were grown to log-phase and infected with T7 phage and incubated with shaking at 32° C. until lysis. The lysates were centrifuged and filtered to remove cell debris. Streptavidin-coated magnetic beads were treated with biotinylated small molecule ligands for 30 minutes at room temperature to generate affinity resins for kinase assays. The liganded beads were blocked with excess biotin and washed with blocking buffer SeaBlock (Pierce), 1% BSA, 0.05% Tween 20, 1 mM DTT to remove unbound ligand and to reduce non-specific binding.
(§2) Test compounds were prepared as 111× stocks in 100% DMSO. Kds were determined using an 11-point 3-fold compound dilution series with three DMSO control points. […] The compounds were then diluted directly into the assays such that the final concentration of DMSO was 0.9%. All reactions performed in polypropylene 384-well plate. Each was a final volume of 0.02 ml. […] The kinase concentration in the eluates was measured by qPCR.
(§3) Binding constants were calculated with a standard dose-response curve using the Hill equation: […]
(§4) The Hill Slope was set to −1. Curves were fitted using a non-linear least square fit with the Levenberg-Marquardt algorithm.

[2] = biological target: T2, FGFR3 (Homo sapiens, UniProt P22607); test: as above; settings: read-out: FGFR3 (Kd nM)
T2 construct: made in house; host or cells: E. coli (BL21-derived), T7 phage
T2 sequence (P22607 23-806): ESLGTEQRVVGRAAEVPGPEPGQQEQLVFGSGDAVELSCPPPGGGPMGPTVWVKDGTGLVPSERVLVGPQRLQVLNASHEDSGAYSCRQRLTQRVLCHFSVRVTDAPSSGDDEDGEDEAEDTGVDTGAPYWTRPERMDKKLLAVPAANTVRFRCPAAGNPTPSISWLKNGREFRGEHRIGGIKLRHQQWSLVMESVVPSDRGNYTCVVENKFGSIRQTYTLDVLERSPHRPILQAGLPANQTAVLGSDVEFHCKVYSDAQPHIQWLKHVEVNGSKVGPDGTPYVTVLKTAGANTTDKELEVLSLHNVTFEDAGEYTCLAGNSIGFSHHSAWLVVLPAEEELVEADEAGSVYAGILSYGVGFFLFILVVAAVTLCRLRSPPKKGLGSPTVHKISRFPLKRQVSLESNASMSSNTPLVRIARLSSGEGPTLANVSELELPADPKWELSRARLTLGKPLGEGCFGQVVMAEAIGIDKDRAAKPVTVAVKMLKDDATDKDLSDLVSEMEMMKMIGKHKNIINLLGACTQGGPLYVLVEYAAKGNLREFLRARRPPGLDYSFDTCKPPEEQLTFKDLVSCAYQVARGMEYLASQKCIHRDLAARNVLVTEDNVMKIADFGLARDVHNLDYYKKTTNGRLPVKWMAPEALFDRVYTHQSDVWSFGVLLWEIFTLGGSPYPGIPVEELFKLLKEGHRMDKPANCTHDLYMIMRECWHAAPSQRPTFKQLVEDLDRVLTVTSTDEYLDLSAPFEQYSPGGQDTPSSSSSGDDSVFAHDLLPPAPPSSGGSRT
Method: as §1, §2, §3, §4

[3] = kinase binding assay, 11-point 3-fold dilution series

T1 sequence (P11362 22-822): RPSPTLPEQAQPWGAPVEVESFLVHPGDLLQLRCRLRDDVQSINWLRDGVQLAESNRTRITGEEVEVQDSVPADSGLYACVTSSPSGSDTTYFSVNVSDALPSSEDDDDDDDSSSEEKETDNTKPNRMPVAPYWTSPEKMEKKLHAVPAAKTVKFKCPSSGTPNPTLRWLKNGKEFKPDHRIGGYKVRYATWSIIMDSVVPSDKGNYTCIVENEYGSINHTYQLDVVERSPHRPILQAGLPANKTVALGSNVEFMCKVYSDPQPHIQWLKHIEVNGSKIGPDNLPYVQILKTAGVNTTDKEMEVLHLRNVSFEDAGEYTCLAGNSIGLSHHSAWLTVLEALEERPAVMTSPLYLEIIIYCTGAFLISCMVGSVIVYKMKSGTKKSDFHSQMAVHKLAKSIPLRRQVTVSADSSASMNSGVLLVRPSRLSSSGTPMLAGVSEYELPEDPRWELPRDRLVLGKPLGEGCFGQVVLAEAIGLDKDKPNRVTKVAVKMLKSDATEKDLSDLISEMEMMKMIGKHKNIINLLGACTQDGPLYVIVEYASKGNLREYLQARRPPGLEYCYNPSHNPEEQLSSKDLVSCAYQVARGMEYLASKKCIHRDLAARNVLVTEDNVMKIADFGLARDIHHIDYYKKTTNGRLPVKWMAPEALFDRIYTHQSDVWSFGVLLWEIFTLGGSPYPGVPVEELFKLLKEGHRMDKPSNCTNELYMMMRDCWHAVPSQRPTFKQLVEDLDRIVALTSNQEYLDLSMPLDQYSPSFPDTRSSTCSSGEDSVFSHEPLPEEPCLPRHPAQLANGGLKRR

Which results are given for `COc1cc2[nH]nc(-c3ccc(N4CCC(C)(N)C4)nc3)c2cc1O[C@H](C)c1c(Cl)cncc1Cl` (stereo in doubt) [Example 380, (R)-1-(5-(5-((R)-1-(3,5-dichloropyridin-4-yl)ethoxy)-6-methoxy-1H-indazol-3-yl)pyridin-2-yl)-3-methylpyrrolidin-3-amine]?
Kd [1]: 1 to 50 nM; Kd [2]: 1 to 50 nM

`C[C@@H](Oc1ccc2[nH]nc(-c3ccc(N4CCC(N)(c5ccnn5C)C4)nn3)c2c1)c1c(Cl)cncc1Cl` (stereo in doubt) [Example 416, (R)-1-(6-(5-((R)-1-(3,5-dichloropyridin-4-yl)ethoxy)-1H-indazol-3-yl)pyridazin-3-yl)-3-(1-methyl-1H-pyrazol-5-yl)pyrrolidin-3-amine] was tested. Which Kd [1, 3] did it give?
Its Kd is 1 to 50 nM.

And the Kd [2, 3]?
Its Kd is 1 to 50 nM.

Which results are given for `CCNC1(C)CN(c2ncc(-c3n[nH]c4ccc(O[C@H](C)c5c(Cl)cncc5Cl)cc34)cn2)C1` [Example 238, (R)-1-(5-(5-(1-(3,5-dichloropyridin-4-yl)ethoxy)-1H-indazol-3-yl)pyrimidin-2-yl)-N-ethyl-3-methylazetidin-3-amine]?
Kd [1]: 1 to 50 nM; Kd [2]: 1 to 50 nM

For `C=CCNC1(C)CN(c2ccc(-c3n[nH]c4ccc(O[C@H](C)c5c(Cl)cncc5Cl)cc34)c(F)n2)C1` [Example 240, (R)-N-ally1-1-(5-(5-(1-(3,5-dichloropyridin-4-yl)ethoxy)-1H-indazol-3-yl)-6-fluoropyridin-2-yl)-3-methylazetidin-3-amine], which Kd [1] is on record?
The Kd was 1 to 50 nM.

What about the Kd [2] of the same compound?
Its Kd is 1 to 50 nM.

Which Kd [1] does the source give for `C[C@@H](Oc1ccc2[nH]nc(-c3cnc(N4CC(CC#N)(N(C)C)C4)c(F)c3)c2c1)c1c(Cl)cncc1Cl` [Example 252, (R)-2-(1-(5-(5-(1-(3,5-dichloropyridin-4-yl)ethoxy)-1H-indazol-3-yl)-3-fluoropyridin-2-yl)-3-(dimethyl-amino)azeti-din-3-yl)acetonitrile] here?
The Kd was 1 to 50 nM.

And the Kd [2]?
The Kd was 1 to 50 nM.

With `CC(C)CNC1(CC#N)CN(c2ncc(-c3n[nH]c4ccc(O[C@H](C)c5c(Cl)cncc5Cl)cc34)cc2F)C1` [Example 253, (R)-2-(1-(5-(5-(1-(3,5-Dichloropyridin-4-yl)ethoxy)-1H-indazol-3-yl)-3-fluoropyridin-2-yl)-3-(iso-butylamino)azeti-din-3-yl)acetonitrile dihydrochloride] as the compound, how does the Kd [1] read?
Its Kd is 50 to 300 nM.

And the Kd [2]?
Its Kd is 1 to 50 nM.

`Cc1ncc(Cl)c([C@@H](C)Oc2ccc3[nH]nc(-c4cnc(N5CC(CC#N)(NCC(C)C)C5)c(F)c4)c3c2)c1Cl` [Example 254, (R)-2-(1-(5-(5-(1-(3,5-Dichloro-2-methylpyridin-4-yl)ethoxy)-1H-indazol-3-yl)-3-fluoropyridin-2-yl)-3-(iso-butylamino)azeti-din-3-yl)acetonitrile] was tested. Which Kd [1] did it give?
Its Kd is 50 to 300 nM.

What about the Kd [2] of the same compound?
The Kd was 1 to 50 nM.

For `CC(C)N(C)C1(CC#N)CN(c2ncc(-c3n[nH]c4ccc(O[C@H](C)c5c(Cl)cncc5Cl)cc34)cc2F)C1` [Example 257, (R)-2-(1-(5-(5-(1-(3,5-dichloropyridin-4-yl)ethoxy)-1H-indazol-3-yl)-3-fluoropyridin-2-yl)-3-(isopropyl(methyl)a-mino)azetidin-3-yl)acetonitrile], which Kd [1] is on record?
The Kd was 50 to 300 nM.

And the Kd [2]?
Its Kd is 1 to 50 nM.

`C[C@@H](Oc1ccc2[nH]nc(-c3cnc(N4CC(N)(C5CCOCC5)C4)c(F)c3)c2c1)c1c(Cl)cncc1Cl` [Example 263, (R)-1-(5-(5-(1-(3,5-dichloropyridin-4-yl)ethoxy)-1H-indazol-3-yl)-3-fluoropyridin-2-yl)-3-(tetrahydro-2H-pyran-4-yl)azetidin-3-amine] was tested. Which Kd [1] did it give?
The Kd was 1 to 50 nM.

What about the Kd [2] of the same compound?
The Kd was 1 to 50 nM.

With `CCCC1(N)CN(c2ncc(-c3n[nH]c4ccc(O[C@H](C)c5c(Cl)cncc5Cl)cc34)cc2F)C1` [Example 265, (R)-1-(5-(5-(1-(3,5-dichloropyridin-4-yl)ethoxy)-1H-indazol-3-yl)-3-fluoropyridin-2-yl)-3-propylazetidin-3-amine] as the compound, how does the Kd [1] read?
The Kd was 1 to 50 nM.

What about the Kd [2] of the same compound?
Its Kd is 1 to 50 nM.

Which results are given for `C[C@@H](Oc1ccc2[nH]nc(-c3cnc(N4CC(C)(NCCN5CCCC5)C4)c(F)c3)c2c1)c1c(Cl)cncc1Cl` [Example 268, (R)-1-(5-(5-(1-(3,5-dichloropyridin-4-yl)ethoxy)-1H-indazol-3-yl)-3-fluoropyridin-2-yl)-3-methyl-N-(2-(pyrrolidin-1-yl)ethyl)azetidin-3-amine]?
Kd [1]: 1 to 50 nM; Kd [2]: 1 to 50 nM

What does the source list for `C[C@@H](Oc1ccc2[nH]nc(-c3ccc(N4CC(N)(CC(C)(C)O)C4)nn3)c2c1)c1c(Cl)cncc1Cl` [Example 275, (R)-1-(3-amino-1-(6-(5-(1-(3,5-dichloropyridin-4-yl)ethoxy)-1H-indazol-3-yl)pyridazin-3-yl)azetidin-3-yl)-2-methylpropan-2-ol]?
Kd [1]: 1 to 50 nM; Kd [2]: 1 to 50 nM

What does the source list for `C[C@@H](Oc1ccc2[nH]nc(-c3ccc(N4CC(N)(CC(C)(C)O)C4)nc3)c2c1)c1c(Cl)cncc1Cl` [Example 278, (R)-1-(3-amino-1-(5-(5-(1-(3,5-dichloropyridin-4-yl)ethoxy)-1H-indazol-3-yl)pyridin-2-yl)azetidin-3-yl)-2-methylpropan-2-ol]?
Kd [1]: 1 to 50 nM; Kd [2]: 1 to 50 nM

Which results are given for `C[C@@H](Oc1ccc2[nH]nc(-c3ccc(N4CC(N)(CCO)C4)nc3)c2c1)c1c(Cl)cncc1Cl` [Example 279, (R)-2-(3-amino-1-(5-(5-(1-(3,5-dichloropyridin-4-yl)ethoxy)-1H-indazol-3-yl)pyridin-2-yl)azetidin-3-yl)ethanol]?
Kd [1]: 1 to 50 nM; Kd [2]: 1 to 50 nM

Which results are given for `CCC(C)C1(N)CN(c2ncc(-c3n[nH]c4ccc(O[C@H](C)c5c(Cl)cncc5Cl)cc34)cc2F)C1` (stereo partly drawn) [Example 280, 1-[5-[5-[(1R)-1-(3,5-dichloro-4-pyridyl)ethoxy]-1H-indazol-3-yl]-3-fluoro-2-pyridyl]-3-sec-butyl-azetidin-3-amine]?
Kd [1]: 1 to 50 nM; Kd [2]: 1 to 50 nM

For `C[C@@H](Oc1ccc2[nH]nc(-c3ccc(N4CC(C)(N)C4)nn3)c2c1)c1c(Cl)cncc1Cl` [Example 286], which Kd [1] is on record?
The Kd was 1 to 50 nM.

What about the Kd [2] of the same compound?
The Kd was 1 to 50 nM.

For `CC(C)OC(=O)C1(N)CN(c2ncc(-c3n[nH]c4ccc(O[C@H](C)c5c(Cl)cncc5Cl)cc34)cc2F)C1` [Example 287, (R)-isopropyl 3-amino-1-(5-(5-(1-(3,5-dichloropyridin-4-yl)ethoxy)-1H-indazol-3-yl)-3-fluoropyridin-2-yl)azetidine-3-carboxylate], which Kd [1] is on record?
Its Kd is 1 to 50 nM.

And the Kd [2]?
The Kd was 1 to 50 nM.

With `C[C@@H](Oc1ccc2[nH]nc(-c3cnc(N4CC(N)(CC5CCCO5)C4)c(F)c3)c2c1)c1c(Cl)cncc1Cl` (stereo partly drawn) [Example 288, 1-(5-(5-((R)-1-(3,5-dichloropyridin-4-yl)ethoxy)-1H-indazol-3-yl)-3-fluoropyridin-2-yl)-3-((tetrahydrofuran-2-yl)methyl)azetidin-3-amine] as the compound, how does the Kd [1] read?
Its Kd is 1 to 50 nM.

And the Kd [2]?
Its Kd is 1 to 50 nM.

How did the Kd [1] turn out when `C[C@@H](Oc1ccc2[nH]nc(-c3ccc(N4CC(N)(CCF)C4)nn3)c2c1)c1c(Cl)cncc1Cl` [Example 292, (R)-1-(6-(5-(1-(3,5-dichloropyridin-4-yl)ethoxy)-1H-indazol-3-yl)pyridazin-3-yl)-3-(2-fluoroethyl)azetidin-3-amine] was run?
The Kd was 1 to 50 nM.

And the Kd [2]?
The Kd was 1 to 50 nM.

For `C[C@@H](Oc1ccc2[nH]nc(-c3cnc(N4CC(N)(C(=O)N(C)C)C4)c(F)c3)c2c1)c1c(Cl)cncc1Cl` [Example 293, (R)-3-amino-1-(5-(5-(1-(3,5-dichloropyridin-4-yl)ethoxy)-1H-indazol-3-yl)-3-fluoropyridin-2-yl)-N,N-dimethylazetidine-3-carboxamide], which Kd [1] is on record?
Its Kd is 1 to 50 nM.

What about the Kd [2] of the same compound?
Its Kd is 1 to 50 nM.

What does the source list for `CNC(=O)C1(N)CN(c2ncc(-c3n[nH]c4ccc(O[C@H](C)c5c(Cl)cncc5Cl)cc34)cc2F)C1` [Example 296, (R)-3-amino-1-(5-(5-(1-(3,5-dichloropyridin-4-yl)ethoxy)-1H-indazol-3-yl)-3-fluoropyridin-2-yl)-N-methylazetidine-3-carboxamide]?
Kd [1]: 1 to 50 nM; Kd [2]: 1 to 50 nM

What does the source list for `COc1cc2[nH]nc(-c3cnc(N4CC(C)(N)C4)nc3)c2cc1O[C@H](C)c1c(Cl)cncc1Cl` [Example 302, (R)-1-(5-(5-(1-(3,5-dichloropyridin-4-yl)ethoxy)-6-methoxy-1H-indazol-3-yl)pyrimidin-2-yl)-3-methylazetidin-3-amine]?
Kd [1]: 1 to 50 nM; Kd [2]: 1 to 50 nM

Which Kd [1] does the source give for `C[C@@H](Oc1ccc2[nH]nc(-c3ccc(N4CC(N)(CC5CCCO5)C4)nn3)c2c1)c1c(Cl)cncc1Cl` (stereo partly drawn) [Example 305, 1-(6-(5-((R)-1-(3,5-dichloropyridin-4-yl)ethoxy)-1H-indazol-3-yl)pyridazin-3-yl)-3-((tetrahydrofuran-2-yl)methyl)azetidin-3-amine] here?
Its Kd is 1 to 50 nM.

And the Kd [2]?
The Kd was 1 to 50 nM.

Which Kd [1] does the source give for `C[C@@H](Oc1ccc2[nH]nc(-c3cnc(N4CC(N)(CCCO)C4)c(F)c3)c2c1)c1c(Cl)cncc1Cl` [Example 307, (R)-3-(3-amino-1-(5-(5-(1-(3,5-dichloropyridin-4-yl)ethoxy)-1H-indazol-3-yl)-3-fluoropyridin-2-yl)azetidin-3-yl)propan-1-ol] here?
Its Kd is 1 to 50 nM.

What about the Kd [2] of the same compound?
The Kd was 1 to 50 nM.

With `C[C@@H](Oc1ccc2[nH]nc(-c3cnc(N4CC[C@@](C)(N)C4)c(F)c3)c2c1)c1c(Cl)cncc1Cl` [Example 408, (R)-1-(5-(5-((R)-1-(3,5-dichloropyridin-4-yl)ethoxy)-1H-indazol-3-yl)-3-fluoropyridin-2-yl)-3-methylpyrrolidin-3-amine] as the compound, how does the Kd [1, 3] read?
Its Kd is 1 to 50 nM.

Reference: US20250368666A1, “INDAZOLE COMPOUNDS” (TYRA BIOSCIENCES, INC., priority 2022, published 2025)
